Laboratory results as given in patent publication US8153557B2, “Agriculturally useful compositions” (priority 2006, dated 2012).

Columns and labels:
[1] = Precipitation of Cloquintocet-mexyl hydrate in emulsified concentrate (EW) of Example One; assay type: physicochemical; conditions: EW of Table E1: Aromatic 200 15.3, n-butyl lactate 15.3, ATLOX 4914 1.4, Cloquintocet-mexyl 4.2, ATLAS G-5000 2.2, water 61.6 weight percent
Description: The Following Items where Mix Together (See Table E1). [table] The Cloquintocet-mexyl was dissolved into a mixture of Aromatic 200 and n-butyl lactate. The emulsifiers were then mixed into the mixture. Finally, water was added and the mixture was turned into a emulsified concentrate (EW) by mechanical stirring. Precipitation of Cloquintocet-mexyl hydrate was not observed.

[2] = Precipitation of Cloquintocet-mexyl hydrate from A200, BL or A200+BL solutions after addition of water (Example Two); assay type: physicochemical; set-up: key to Cloquintocet-mexyl hydrate precipitation: “P” means that Cloquintocet-mexyl hydrate precipitated from the mixture.; “S” means that Cloquintocet-mexyl hydrate did not precipitated from the mixture; conditions: about 10 weight percent water added, 4° C.
Description: CQC was dissolved into A200, BL, or a mixture of A200+BL. Thereafter, about 10 weight percent water was added to each sample based on the weight of the sample (A200+BL+CQC). Each sample was prepared at 4° C.

## CCCCCC(C)OC(=O)COc1ccc(Cl)c2cccnc12 (stereo not shown) [CQC, Cloquintocet-mexyl]
[1]
  Precipitation of Cloquintocet-mexyl hydrate: not observed
[2]; 50/50 mixture of A200 and BL
  CQC content kept in solution when mixed with water: up to 14 weight percent
[2]; A200(100%)
  CQC content at which Cloquintocet-mexyl hydrate is kept in solution when mixed with water: less than 7 weight percent
[2]; BL(100%)
  CQC content at which Cloquintocet-mexyl hydrate is kept in solution when mixed with water: less than 7 weight percent
[2]; CQC 3 wt %, BL 100%
  Cloquintocet-mexyl hydrate precipitation: S
[2]; CQC 4 wt %, A200 100%
  Cloquintocet-mexyl hydrate precipitation: S
[2]; CQC 5 wt %, BL 100%
  Cloquintocet-mexyl hydrate precipitation: S
[2]; CQC 6 wt %, A200 100%
  Cloquintocet-mexyl hydrate precipitation: S
[2]; CQC 7 wt %, BL 100%
  Cloquintocet-mexyl hydrate precipitation: P
[2]; CQC 8 wt %, A200 100%
  Cloquintocet-mexyl hydrate precipitation: P
[2]; CQC 9 wt %, BL 100%
  Cloquintocet-mexyl hydrate precipitation: P
[2]; CQC 10 wt %, A200 100%
  Cloquintocet-mexyl hydrate precipitation: P
[2]; CQC 11 wt %, BL 100%
  Cloquintocet-mexyl hydrate precipitation: P
[2]; CQC 12 wt %, A200 (12%) + BL (88%)
  Cloquintocet-mexyl hydrate precipitation: P
[2]; CQC 12 wt %, A200 (50%) + BL (50%)
  Cloquintocet-mexyl hydrate precipitation: S
[2]; CQC 12 wt %, A200 (88%) + BL (12%)
  Cloquintocet-mexyl hydrate precipitation: P
[2]; CQC 13 wt %, BL 100%
  Cloquintocet-mexyl hydrate precipitation: P
[2]; CQC 14 wt %, A200 (12%) + BL (88%)
  Cloquintocet-mexyl hydrate precipitation: P
[2]; CQC 14 wt %, A200 (50%) + BL (50%)
  Cloquintocet-mexyl hydrate precipitation: S
[2]; CQC 14 wt %, A200 (88%) + BL (12%)
  Cloquintocet-mexyl hydrate precipitation: P
[2]; CQC 15.5 wt %, A200 100%
  Cloquintocet-mexyl hydrate precipitation: P
[2]; CQC 15.5 wt %, A200 (12%) + BL (88%)
  Cloquintocet-mexyl hydrate precipitation: P
[2]; CQC 15.5 wt %, A200 (50%) + BL (50%)
  Cloquintocet-mexyl hydrate precipitation: P
[2]; CQC 15.5 wt %, A200 (88%) + BL (12%)
  Cloquintocet-mexyl hydrate precipitation: P
[2]; CQC 15.5 wt %, BL 100%
  Cloquintocet-mexyl hydrate precipitation: P
